Measurements taken from patent publication US10745416B2, “Macrocyclic compounds for treating disease” (Turning Point Therapeutics, Inc., priority 2017, dated 2020).

Experiments:
Experiment in all cases: Cell proliferation assay (CellTiter-Glo, 72 hours)
BaF3 KIF5B-RET_G810R = target: T1, BaF3 KIF5B-RET_G810R (Homo sapiens, UniProt P07949, G810R, cells depend on it); assay type: cell-based; conditions: anti-cell proliferation, read-out: BaF3 KIF5B-RET_G810R IC50
T1 construct: fused on or other part: P33176 (Kinesin-1 heavy chain)
Excerpt: [The source words this procedure for another variant and reports this variant under the same test.] (§1) The KIF5B-RET gene was synthesized at GenScript and cloned into pCDH-CMV-MCS-EF1-Puro plasmid (System Biosciences, Inc). KIF5B-RET point mutation V804M was generated at GenScript by PCR and confirmed by sequencing. Ba/F3-KIF5B-RET wild type and mutant were generated by transducing Ba/F3 cells with lentivirus containing KIF5B-RET wide type or mutant. Stable cell lines were selected by puromycin treatment, followed by IL-3 withdrawal. Briefly, 5×10^6 Ba/F3 cells were transduced with lentivirus supernatant in the presence of 8 μg/mL protamine sulfate. The transduced cells were subsequently selected with 1 µg/mL puromycin in the presence of IL3-containing medium RPMI1640, plus 10% FBS. After 10-12 days of selection, the surviving cells were further selected for IL3 independent growth.
(§2) Two thousand cells per well were seeded in 384 well white plate for 24 hrs, and then treated with compounds for 72 hours (37° C., 5% CO2). Cell proliferation was measured using CellTiter-Glo luciferase-based ATP detection assay (Promega) following the manufactures's protocol. IC50 determinations were performed using GraphPad Prism software (GraphPad, Inc., San Diego, Calif.).

BaF3 KIF5B-RET_V804M = target: T2, BaF3 KIF5B-RET_V804M (Homo sapiens, UniProt P07949, V804M, cells depend on it); assay type: cell-based; conditions: anti-cell proliferation, read-out: BaF3 KIF5B-RET_V804M IC50
T2 construct: fused on or other part: P33176 (Kinesin-1 heavy chain)
Excerpt: as §1, §2

BaF3 KIF5B-RET = target: T3, BaF3 KIF5B-RET (Homo sapiens, UniProt P07949); assay type: cell-based; conditions: anti-cell proliferation, read-out: BaF3 KIF5B-RET IC50
T3 construct: fused on or other part: P33176 (Kinesin-1 heavy chain)
Excerpt: as §1, §2

KG-1 = assay type: cell-based, human; conditions: Homo sapiens, KG-1, anti-cell proliferation
Description: (§3) Human medulla thyroid carcinoma cell line TT (containing RET […] mutation) and acute myelogenous cell line KG-1 were purchased from ATCC. Human colon cancer cell line KMI2 (containing TPM3-TRKA) was obtained from NCI.
as §2

KM12 cell (TPM3-TRKA) = assay type: cell-based, human; conditions: Homo sapiens, KM12, anti-cell proliferation
Description: as §3, §2

BaF3 EML4-ALK = target: T4, BaF3 EML4-ALK (Homo sapiens, UniProt Q9UM73); assay type: cell-based; conditions: anti-cell proliferation
T4 construct: The EML4-ALK gene (variant 1) was synthesized at GenScript and cloned into pCDH-CMV-MCS-EF1-Puro plasmid (System Biosciences, Inc); fused on or other part: Q9HC35 (Echinoderm microtubule-associated protein-like 4)
Description: The EML4-ALK gene (variant 1) was synthesized at GenScript and cloned into pCDH-CMV-MCS-EF1-Puro plasmid (System Biosciences, Inc). Ba/F3-EML4-ALK wild type were generated by transducing Ba/F3 cells with lentivirus containing EML4-ALK wide type. Stable cell lines were selected by puromycin treatment, followed by IL-3 withdrawal. Briefly, 5×10^6 Ba/F3 cells were transduced with lentivirus supernatant in the presence of 8 μg/mL protamine sulfate. The transduced cells were subsequently selected with 1 μg/mL puromycin in the presence of IL3-containing medium RPMI1640, plus 10% FBS. After 10-12 days of selection, the surviving cells were further selected for IL3 independent growth.
as §2

T3 sequence (P07949 whole entry, change not shown, the tested form may be a part): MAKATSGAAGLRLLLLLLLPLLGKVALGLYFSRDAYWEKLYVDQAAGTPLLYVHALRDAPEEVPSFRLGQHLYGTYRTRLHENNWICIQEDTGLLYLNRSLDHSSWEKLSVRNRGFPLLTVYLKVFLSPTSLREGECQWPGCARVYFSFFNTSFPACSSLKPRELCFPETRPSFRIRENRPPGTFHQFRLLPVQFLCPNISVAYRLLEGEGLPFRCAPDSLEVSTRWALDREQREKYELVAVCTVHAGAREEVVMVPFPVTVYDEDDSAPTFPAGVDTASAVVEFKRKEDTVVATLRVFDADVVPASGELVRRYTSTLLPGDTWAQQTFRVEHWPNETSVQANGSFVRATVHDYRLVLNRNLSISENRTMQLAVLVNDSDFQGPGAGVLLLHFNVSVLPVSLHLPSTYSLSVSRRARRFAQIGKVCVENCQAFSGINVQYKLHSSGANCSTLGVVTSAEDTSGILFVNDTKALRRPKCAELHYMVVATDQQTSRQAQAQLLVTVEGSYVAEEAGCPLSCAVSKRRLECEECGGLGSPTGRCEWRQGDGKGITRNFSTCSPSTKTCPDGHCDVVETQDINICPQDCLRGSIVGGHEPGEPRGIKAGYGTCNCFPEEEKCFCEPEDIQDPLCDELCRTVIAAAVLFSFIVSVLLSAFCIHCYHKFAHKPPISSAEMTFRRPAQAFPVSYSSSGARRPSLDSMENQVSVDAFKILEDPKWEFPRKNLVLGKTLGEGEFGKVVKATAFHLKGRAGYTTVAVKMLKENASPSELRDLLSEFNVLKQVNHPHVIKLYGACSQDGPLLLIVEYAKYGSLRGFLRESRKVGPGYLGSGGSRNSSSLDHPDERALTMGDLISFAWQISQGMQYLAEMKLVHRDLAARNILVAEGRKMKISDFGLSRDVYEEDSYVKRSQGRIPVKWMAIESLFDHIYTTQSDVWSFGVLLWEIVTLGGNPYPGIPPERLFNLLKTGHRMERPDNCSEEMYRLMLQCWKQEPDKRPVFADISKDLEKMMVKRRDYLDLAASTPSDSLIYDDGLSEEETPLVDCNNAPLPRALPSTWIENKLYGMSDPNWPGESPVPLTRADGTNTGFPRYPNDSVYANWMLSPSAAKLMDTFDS
T4 sequence (Q9UM73 whole entry, change not shown, the tested form may be a part): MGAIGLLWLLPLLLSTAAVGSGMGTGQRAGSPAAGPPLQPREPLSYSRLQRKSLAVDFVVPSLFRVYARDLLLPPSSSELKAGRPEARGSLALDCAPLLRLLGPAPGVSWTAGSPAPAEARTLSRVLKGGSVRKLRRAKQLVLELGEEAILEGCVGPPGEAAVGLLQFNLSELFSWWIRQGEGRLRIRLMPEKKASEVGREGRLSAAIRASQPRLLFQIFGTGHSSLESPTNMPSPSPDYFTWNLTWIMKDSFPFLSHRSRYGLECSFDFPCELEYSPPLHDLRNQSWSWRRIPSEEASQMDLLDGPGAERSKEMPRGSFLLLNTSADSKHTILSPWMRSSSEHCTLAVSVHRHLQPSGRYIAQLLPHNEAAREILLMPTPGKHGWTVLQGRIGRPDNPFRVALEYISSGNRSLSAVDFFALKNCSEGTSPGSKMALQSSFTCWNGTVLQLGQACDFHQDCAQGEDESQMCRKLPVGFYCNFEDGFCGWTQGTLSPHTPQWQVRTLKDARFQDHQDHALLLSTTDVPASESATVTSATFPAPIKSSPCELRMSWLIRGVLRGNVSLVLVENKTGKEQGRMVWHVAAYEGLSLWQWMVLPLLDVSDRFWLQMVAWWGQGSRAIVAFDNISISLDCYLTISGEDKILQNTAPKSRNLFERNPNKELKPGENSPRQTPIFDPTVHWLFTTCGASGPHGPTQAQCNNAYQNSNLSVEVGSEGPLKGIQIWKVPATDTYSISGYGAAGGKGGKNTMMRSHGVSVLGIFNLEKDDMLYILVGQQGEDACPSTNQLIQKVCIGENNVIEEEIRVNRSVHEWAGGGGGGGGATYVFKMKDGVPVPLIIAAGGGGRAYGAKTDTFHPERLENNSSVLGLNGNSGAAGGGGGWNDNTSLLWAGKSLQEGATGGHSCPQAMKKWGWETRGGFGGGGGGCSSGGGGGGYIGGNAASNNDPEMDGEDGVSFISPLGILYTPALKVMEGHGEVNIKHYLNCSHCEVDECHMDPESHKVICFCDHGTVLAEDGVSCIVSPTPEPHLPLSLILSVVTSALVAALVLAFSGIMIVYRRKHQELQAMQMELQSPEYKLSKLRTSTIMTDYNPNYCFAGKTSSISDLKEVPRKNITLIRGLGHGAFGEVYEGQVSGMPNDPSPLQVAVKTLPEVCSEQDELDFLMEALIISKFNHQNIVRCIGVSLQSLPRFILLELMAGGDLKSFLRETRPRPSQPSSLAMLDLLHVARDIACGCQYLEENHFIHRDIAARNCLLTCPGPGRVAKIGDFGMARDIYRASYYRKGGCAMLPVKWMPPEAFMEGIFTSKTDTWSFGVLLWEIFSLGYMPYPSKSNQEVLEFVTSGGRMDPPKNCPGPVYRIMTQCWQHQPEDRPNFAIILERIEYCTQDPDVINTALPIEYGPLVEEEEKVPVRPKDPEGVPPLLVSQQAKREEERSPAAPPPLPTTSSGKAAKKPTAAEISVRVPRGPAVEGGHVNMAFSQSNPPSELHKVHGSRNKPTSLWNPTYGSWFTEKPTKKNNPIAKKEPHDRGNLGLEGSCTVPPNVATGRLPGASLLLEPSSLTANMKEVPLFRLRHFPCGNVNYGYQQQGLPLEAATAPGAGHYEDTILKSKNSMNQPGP
T2 sequence (P07949 whole entry V804M, the tested form may be a part): as the sequence (P07949 whole entry, change not shown, the tested form may be a part) above, with V804M counted along it
T1 sequence (P07949 whole entry G810R, the tested form may be a part): as the sequence (P07949 whole entry, change not shown, the tested form may be a part) above, with G810R counted along it

Structure (SMILES)	GI50 (BaF3 KIF5B-RET_G810R)	GI50 (BaF3 KIF5B-RET_V804M)	GI50 (BaF3 KIF5B-RET)	IC50 (KG-1)	IC50 (KM12 cell (TPM3-TRKA))	GI50 (BaF3 EML4-ALK)
O=C1N[C@@H]2CCC[C@@H]2Oc2ncc(F)cc2CN2c3nc4c1cnn4cc3O[C@H]1CCC[C@H]12 [Compound 24, (3aS,11aR,14aS,21aR)-18-fluoro-2,3,3a,11,11a,12,13,14,14a,21a-decahydro-1H,10H,20H-7,5-(metheno)cyclopenta[b]cyclopenta[5,6][1,4] oxazino[3,4-i]pyrazolo[4,3-f]pyrido[3,2-l][1,4,8,10]oxatriazacyclotridecin-10-one]	73.6 nM	1220 nM	1.8 nM	8.7 nM	2.8 nM	469 nM
O=C1NC2(COc3ncc(F)cc3CN3c4nc5c1cnn5cc4O[C@H]1CCC[C@H]13)CC(F)(F)C2 [Compound 25, (3a′R,20a′S)-3,3,7′-trifluoro-1′H,2′H, 3′H,3a′H,5′H,11′H,13′H,14′H,20a′H-spiro[cyclobutane-1,12′-[10,20]dioxa[4,9,13,16,17,18][hexaaza [17,19](metheno)cyclopenta[5,6][1,4]oxazino[3,4-i]pyrazolo[4,3-f]pyrido [3,2-l][1,4,8,10]oxatriazacyclotridecin]-14′-one]	559 nM	3000 nM	193 nM	677 nM	277 nM	3000 nM
O=C1NC2(CCCC2)COc2ncc(F)cc2CN2c3nc4c1cnn4cc3O[C@H]1CCC[C@H]12 [Compound 26, (3a′R,20a′S)-7′-fluoro-1′H,2′H, 3′H,3a′H,5′H,11′H,13′H,14′H,20a′H-spiro[cyclopentane-1,12′-[10,20]dioxa[4,9,13,16,17,18][hexaaza [17,19](metheno)cyclopenta[5,6][1,4]oxazino[3,4-i]pyrazolo[4,3-f]pyrido [3,2-l][1,4,8,10]oxatriazacyclotridecin]-14′-one]	323 nM	5000 nM	160 nM	737 nM	210 nM	1410 nM
CC1(C)CNC(=O)c2cnn3cc4c(nc23)N(Cc2cc(F)cnc2OC1)[C@@H]1CCC[C@@H]1O4 [Compound 27, (3aR,21aS)-7-fluoro-12,12-dimethyl-2,3,3a,11,12,13,14,21a-octahydro-1H,5H,15H-18,20-(metheno)cyclopenta[5,6][1,4]oxazino[4,3-e]pyrazolo[3,4-h]pyrido[2,3-b][1,5,7,11]oxatriazacyclotetradecin-15-one]	63 nM	2000 nM	< 0.2 nM	0.3 nM	0.3 nM	1000 nM
C[C@H]1CCOc2ncc(F)cc2CN2c3nc4c(cnn4cc3O[C@H]3CCC[C@H]32)C(=O)N1 [Compound 28, (3aR,13S,21aS)-7-fluoro-13-methyl-2,3,3a,11,12,13,14,21a-octahydro-1H,5H,15H-18,20-(metheno)cyclopenta[5,6][1,4]oxazino[4,3-e]pyrazolo[3,4-h]pyrido[2,3-b][1,5,7,11]oxatriazacyclotetradecin-15-one]	72 nM	2000 nM	1.5 nM	22.8 nM	11.8 nM	803 nM
CC1CNC(=O)c2cnn3cc4c(nc23)N(Cc2cc(F)cnc2OC1)[C@@H]1CCC[C@@H]1O4 (stereo partly drawn) [Compound 29, (3aR,21aS)-7-fluoro-12-methyl-2,3,3a,11,12,13,14,21a-octahydro-1H,5H,15H-18,20-(metheno)cyclopenta[5,6][1,4]oxazino[4,3-e]pyrazolo[3,4-h]pyrido[2,3-b][1,5,7,11]oxatriazacyclotetradecin-15-one]	134 nM	1380 nM	0.3 nM	7.9 nM	1.7 nM	901 nM
C[C@H]1CNC(=O)c2cnn3cc4c(nc23)N(Cc2cc(F)cnc2O1)[C@@H]1COC[C@@H]1O4 [Compound 30, (3aR,11S,20aR)-7-fluoro-11-methyl-1,3,3a,12,13,20a-hexahydro-5H-17,19-(metheno)furo[3′,4′:5,6][1,4]oxazino[3,4-i]pyrazolo[4,3-f]pyrido[3,2-l][1,4,8,10]oxatriazacyclotridecin-14(11H)-one]	1860 nM	337 nM	162 nM	853 nM	13.5 nM	2000 nM
O=C1NC[C@H](O)COc2ncc(F)cc2CN2c3nc4c1cnn4cc3O[C@H]1CCC[C@H]12 [Compound 32, (3aR,12S,21aS)-7-fluoro-12-hydroxy-2,3,3a,11,12,13,14,21a-octahydro-1H,5H,15H-18,20-(metheno)cyclopenta[5,6][1,4]oxazino[4,3-e]pyrazolo[3,4-h]pyrido[2,3-b][1,5,7,11]oxatriazacyclotetradecin-15-one]	501 nM	5720 nM	89 nM	223 nM	20.2 nM	1060 nM
O=C1NCC(O)(O)COc2ncc(F)cc2CN2c3nc4c1cnn4cc3O[C@H]1CCC[C@H]12 [Compound 33, (3aR,21aS)-7-fluoro-12,12-dihydroxy-2,3,3a,11,12,13,14,21a-octahydro-1H,5H,15H-18,20-(metheno)cyclopenta[5,6][1,4]oxazino[4,3-e]pyrazolo[3,4-h]pyrido[2,3-b][1,5,7,11]oxatriazacyclotetradecin-15-one]	1200 nM	4000 nM	198 nM	356 nM	124 nM	2000 nM
O=C1NC[C@H](F)COc2ncc(F)cc2CN2c3nc4c1cnn4cc3O[C@H]1CCC[C@H]12 [Compound 38, (3aR,12S,21aS)-7,12-difluoro-2,3,3a,11,12,13,21a-octahydro-1H,5H, 15H-18,20-(metheno)cyclopenta[5,6][1,4] oxazino[4,3-e]pyrazolo[3,4-h]pyrido[2,3-b][1,5,7,11]oxatriazacyclotetradecin-15-one]	0.3 nM	349 nM	< 0.2 nM	< 0.2 nM	< 0.2 nM	82.1 nM
O=C1NC[C@@H](F)COc2ncc(F)cc2CN2c3nc4c1cnn4cc3O[C@H]1CCC[C@H]12 [Compound 39, 3aR,12R,21aS)-7,12-difluoro-2,3,3a,11,12,13,21a-octahydro-1H,5H, 15H-18,20-(metheno)cyclopenta[5,6][1,4] oxazino[4,3-e]pyrazolo[3,4-h]pyrido[2,3-b][1,5,7,11]oxatriazacyclotetradecin-15-one]	57.3 nM	3000 nM	10.2 nM	59.2 nM	7.4 nM	152 nM
O=C1NCC(F)(F)COc2ncc(F)cc2CN2c3nc4c1cnn4cc3O[C@H]1CCC[C@H]12 [Compound 40, (3aR,21aS)-7,12,12-trifluoro-2,3,3a,11,12,13,14,21a-octahydro-1H,5H, 15H-18,20-(metheno)cyclopenta[5,6][1,4] oxazino[4,3-e]pyrazolo[3,4-h]pyrido[2,3-b][1,5,7,11]oxatriazacyclotetradecin-15-one]	1.8 nM	5000 nM	< 0.2 nM	19.1 nM	< 0.2 nM	1950 nM
C[C@@H]1CNC(=O)c2cnn3cc4c(nc23)N(Cc2cc(F)cnc2O1)[C@H]1CCC[C@H]1O4 [Compound 44, (3aS,11R,20aR)-7-fluoro-11-methyl-2,3 3a,12,13,20a-hexahydro-1H,5H-17,19-(metheno)cyclopenta[5,6][1,4] oxazino[3,4-i]pyrazolo[4,3-f]pyrido[3,2-l][1,4,8,10]oxatriazacyclotridecin-14(11H)-one]	> 10000 nM	> 10000 nM	> 10000 nM	> 10000 nM	668 nM	> 10000 nM
O=C1NC2(CCC2)CCOc2ncc(F)cc2CN2c3nc4c1cnn4cc3O[C@H]1CCC[C@H]12 [Compound 45]	1710 nM	5000 nM	526 nM	1130 nM	202 nM	3110 nM
